Source: PubChem BioAssay AID1963832 (Molecular Pharmacology Branch, DTP, NCI, 2024)

Test system: 885724-159-R-J1-PDC complex spheroid viability
Assay: Anticancer human tumor 885724-159-R-J1-PDC patient-derived pancreatic adenocarcinoma cell line growth inhibition [POLQ]
Conditions: for IC50: curve of first compound; for viability, T/C: stronger effect = lower value
Protocol: Multicellular complex tumor spheroid response to Polymerase (POL) inhibitors (novobiocin, ART-558, RP6685) in combination with a variety of drugs and investigational agents in selected tumor cell lines
The POL inhibitors (novobiocin, ART-558, and RP6685) were evaluated both individually and in combination with standard of care and investigational anticancer small molecules within a complex spheroid model of solid tumors. . Complex spheroids include a stromal component modeled by human endothelial cells (HUVEC) and fibroblasts modeled by human mesenchymal stem cells (MSCs). The concentration ranges selected for each drug and investigational agent were based upon clinically achievable concentrations if the clinical Cmax of the agent was known.
Compounds. The drugs and investigational agents: novobiocin (NSC847541), ART-558 (NSC835418), RP-6685 (NSC848927), peposertib (NSC802822), ceralasertib (NSC780249), elimusertib (NSC800525), camonsertib (NSC841442), AZD-1390 (NSC803789), olaparib (NSC753686), talazoparib (NSC767125), rucaparib (NSC756644), sotorasib (NSC818433), MRTX-1133 (NSC836407), SN-38 (NSC673596), topotecan (NSC609699), epotoside (NSC141540), doxorubicin (NSC123127), gemcitabine (NSC613327), 5-fluorouracil (NSC19893), paclitaxel (NSC125973), vemurafenib (NSC761431), MSA-2 (NSC828583), SN-011 (NSC837082), adavosertib (NSC754352), prexasertib (NSC758257), carboplatin (NSC241240) and oxaliplatin (NSC266046), were obtained from the National Cancer Institute (NCI) Developmental Therapeutics Program Chemical Repository (21). The FDA-approved anticancer drug set is available from the Developmental Therapeutics Program at https://dtp.cancer.gov/organization/dscb/obtaining/. […] The stock solutions were prepared in dimethyl sulfoxide (DMSO, Sigma-Aldrich, St. Louis, MO, cat. D2650), except for the platinum compounds which were prepared in saline (Quality Biological, Gaithersburg, MD, cat. 114-055-101), at 800-fold the tested concentration and stored at -70 degrees C prior to their use. All drugs and investigational agents were tested over a range starting from a high concentration at or near the clinical Cmax and decreasing in half-log increments. If the clinical Cmax for an agent had not been determined, the highest concentration tested was 10 microM, except for SN-38, which was tested at a high concentration of 1 microM.
Cell Culture. All cells were maintained in an incubator at 37 degrees C and 5% CO2 with 95% humidity. The PDC lines were cultured according to standard operating procedures established by the NCI PDMR (https://pdmr.cancer.gov). Table 3 of the manuscript, lists the cell lines along with the number of the three cell types plated to form the mct-spheroids and media for tumor cell growth. After thawing, all PDC lines, except 997537-175-T-J1-PDC and 415267-285-R-J2-PDC, were cultured in Matrigel-coated flasks prepared with a working solution of 1X Ham's F-12 nutrient mix, without supplementation (Thermo Fisher Scientific, cat. 11765054), 100 U/mL penicillin-streptomycin (Thermo Fisher Scientific, cat. 15140122), and 2.5% Matrigel (Corning Inc., Corning, NY, cat. 354248) for the first three passages. The two PDC lines 997537-175-T-J1-PDC and 415267-285-R-J2-PDC were cultured on uncoated flasks. The 857933-349-R-J2-PDC line was cultured in 6C/Colon 1B media containing advanced DMEM/F-12 (Thermo Fisher Scientific, cat. 12634028), 10 mM HEPES (Thermo Fisher Scientific, cat. 15630080), 1X GlutaMAX supplement (Thermo Fisher Scientific, cat. 35050061), 0.1 mg/mL primocin (InvivoGen, San Diego, CA, cat. ant-pm-2), 10% defined fetal bovine serum, heat inactivated (HyClone Laboratories Inc., Logan, UT, cat. SH30070.03HI), 50% L-WRN conditioned media (ATCC, cat. CRL-3276), 1.25 mM N-Acetyl-L-cysteine (Sigma-Aldrich, cat. A9165), 10 mM nicotinamide (Sigma-Aldrich, cat. N0636), 1X B-27 supplement (Thermo Fisher Scientific, cat. 17504044), 1X N-2 supplement (Thermo Fisher Scientific, cat. […]
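Further: spheroids exposed to compounds for 7 days.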

Work on CCc1c2c(nc3ccc(O)cc13)-c1cc3c(c(=O)n1C2)COC(=O)[C@]3(O)CC + Nc1ccc(C#CCN(C(=O)Cc2ncc(C(F)(F)F)cc2C(F)(F)F)c2ccc(F)cc2)nn1 yielded an IC50 (second compound 0.0316 µM) of 91.9 nM, an IC50 (second compound 0.1 µM) of 55.9 nM and an IC50 (second compound 0.316 µM) of 45.8 nM. It also gave an IC50 (second compound 1 µM) of 81.8 nM, an IC50 (second compound 3.16 µM) of 59 nM and an IC50 (second compound 10 µM) of 120 nM. It also gave a viability, T/C (second compound 0.0316 µM, first compound 0.00316 µM) of 73.5%, a viability, T/C (second compound 0.0316 µM, first compound 0.01 µM) of 60.1% and a viability, T/C (second compound 0.0316 µM, first compound 0.0316 µM) of 58%. For the same molecule, the viability, T/C (second compound 0.0316 µM, first compound 0.1 µM) was 51.4%, the viability, T/C (second compound 0.0316 µM, first compound 0.316 µM) was 33.5% and the viability, T/C (second compound 0.0316 µM, first compound 1 µM) was 5.95%. The viability, T/C (second compound 0.1 µM, first compound 0.00316 µM) was 82.2%, the viability, T/C (second compound 0.1 µM, first compound 0.01 µM) was 63.5% and the viability, T/C (second compound 0.1 µM, first compound 0.0316 µM) was 52.3%. It also gave a viability, T/C (second compound 0.1 µM, first compound 0.1 µM) of 48.1%, a viability, T/C (second compound 0.1 µM, first compound 0.316 µM) of 33.2% and a viability, T/C (second compound 0.1 µM, first compound 1 µM) of 6.65%. The viability, T/C (second compound 0.316 µM, first compound 0.00316 µM) was 83.1%, the viability, T/C (second compound 0.316 µM, first compound 0.01 µM) was 63.6% and the viability, T/C (second compound 0.316 µM, first compound 0.0316 µM) was 48.1%. The viability, T/C (second compound 0.316 µM, first compound 0.1 µM) was 46.1%, the viability, T/C (second compound 0.316 µM, first compound 0.316 µM) was 32.7% and the viability, T/C (second compound 0.316 µM, first compound 1 µM) was 6.56%. For the same molecule, the viability, T/C (second compound 1 µM, first compound 0.00316 µM) was 76.3%, the viability, T/C (second compound 1 µM, first compound 0.01 µM) was 63% and the viability, T/C (second compound 1 µM, first compound 0.0316 µM) was 49%. For the same molecule, the viability, T/C (second compound 1 µM, first compound 0.1 µM) was 51.4%, the viability, T/C (second compound 1 µM, first compound 0.316 µM) was 37.7% and the viability, T/C (second compound 1 µM, first compound 1 µM) was 5.34%. For the same molecule, the viability, T/C (second compound 3.16 µM, first compound 0.00316 µM) was 78.8%, the viability, T/C (second compound 3.16 µM, first compound 0.01 µM) was 65.1% and the viability, T/C (second compound 3.16 µM, first compound 0.0316 µM) was 51.4%. For the same molecule, the viability, T/C (second compound 3.16 µM, first compound 0.1 µM) was 47.2%, the viability, T/C (second compound 3.16 µM, first compound 0.316 µM) was 34.6% and the viability, T/C (second compound 3.16 µM, first compound 1 µM) was 5.06%. It also gave a viability, T/C (second compound 10 µM, first compound 0.00316 µM) of 72.8%, a viability, T/C (second compound 10 µM, first compound 0.01 µM) of 58.6% and a viability, T/C (second compound 10 µM, first compound 0.0316 µM) of 53.6%. The viability, T/C (second compound 10 µM, first compound 0.1 µM) was 55.1%, the viability, T/C (second compound 10 µM, first compound 0.316 µM) was 39.3% and the viability, T/C (second compound 10 µM, first compound 1 µM) was 5.13%.
